Assay results reported in patent US12692232B2, “Indole carboxamide compound, preparation therefor and use thereof” (NANJING RUISHUNING MEDICAL TECHNOLOGY CO., LTD., priority 2021, dated 2026).

How the values were obtained:
[1] = test system: lipopolysaccharide (LPS)-induced mouse model of sepsis; assay: LPS-induced mouse model of sepsis, survival analysis; type: in vivo; details: for average survival time: LPS 40 mg/kg i.p., LPS group 15.4±2.9; for time after which the mice began to die: LPS 40 mg/kg i.p. 30 minutes later, LPS group about 12 hours
Protocol: A lipopolysaccharide (LPS)-induced mouse model of sepsis was used to determine the preventive and therapeutic effect of the compounds of the present invention (as exemplified by compounds 1-1 and 2-1 obtained in Examples 1 and 3) against sepsis. The method was as follows:
Experimental animals: 60 male C57BL/6J mice aged 6-8 weeks. The experimental animals were housed in an environment with room temperature of 25±2° C., 12 hours dark/12 hours light, and fed with conventional feed.
Survival analysis experiment: the mice were randomly divided into 6 groups of 10 mice each, namely, i) a solvent control group: each animal was administered 0.9% saline; ii) a sepsis model group (LPS group): each animal was injected intraperitoneally with LPS at a dose of 40 mg/kg; iii) a treatment group of medium-dose compound 1-1 (LPS+25 mg/kg of compound 1-1 obtained in Example 1): each animal was administered compound 1-1 by gavage at a dose of 25 mg/kg, followed by intraperitoneal injection of LPS at a dose of 40 mg/kg 30 minutes later; iv) a treatment group of high-dose compound 1-1 (LPS+50 mg/kg of compound 1-1 obtained in Example 1): each animal was administered compound 1-1 by gavage at a dose of 50 mg/kg, followed by intraperitoneal injection of LPS at a dose of 40 mg/kg 30 minutes later; v) a treatment group of high-dose compound 2-1 (LPS+50 mg/kg compound 2-1 obtained in Example 2): each animal was administered compound 2-1 by gavage at a dose of 50 mg/kg, followed by intraperitoneal injection of LPS at a dose of 40 mg/kg 30 minutes later; vi) a treatment group of medium-dose indole analogue 3-[(1-methyl-1H-indole-2-carbonyl)amino]propionic acid disclosed in CN2019107285315 (LPS+25 mg/kg of indole analogue 3-[(1-methyl-1H-indole-2-carbonyl)amino]propionic acid disclosed in CN2019107285315). The survival of the mice in each group was monitored, the time of death of the mice was recorded, and the average survival time of the animals in each group was calculated.

[2] = target: TRPC1 protein (Homo sapiens, UniProt P48995); assay: MST binding to TRPC1 protein; details: for Kd: MST; for affinity strength to TRPC6 protein higher than to TRPC1 protein: MST Kd ratio
Chain of TRPC1 protein (P48995 whole entry, species assumed): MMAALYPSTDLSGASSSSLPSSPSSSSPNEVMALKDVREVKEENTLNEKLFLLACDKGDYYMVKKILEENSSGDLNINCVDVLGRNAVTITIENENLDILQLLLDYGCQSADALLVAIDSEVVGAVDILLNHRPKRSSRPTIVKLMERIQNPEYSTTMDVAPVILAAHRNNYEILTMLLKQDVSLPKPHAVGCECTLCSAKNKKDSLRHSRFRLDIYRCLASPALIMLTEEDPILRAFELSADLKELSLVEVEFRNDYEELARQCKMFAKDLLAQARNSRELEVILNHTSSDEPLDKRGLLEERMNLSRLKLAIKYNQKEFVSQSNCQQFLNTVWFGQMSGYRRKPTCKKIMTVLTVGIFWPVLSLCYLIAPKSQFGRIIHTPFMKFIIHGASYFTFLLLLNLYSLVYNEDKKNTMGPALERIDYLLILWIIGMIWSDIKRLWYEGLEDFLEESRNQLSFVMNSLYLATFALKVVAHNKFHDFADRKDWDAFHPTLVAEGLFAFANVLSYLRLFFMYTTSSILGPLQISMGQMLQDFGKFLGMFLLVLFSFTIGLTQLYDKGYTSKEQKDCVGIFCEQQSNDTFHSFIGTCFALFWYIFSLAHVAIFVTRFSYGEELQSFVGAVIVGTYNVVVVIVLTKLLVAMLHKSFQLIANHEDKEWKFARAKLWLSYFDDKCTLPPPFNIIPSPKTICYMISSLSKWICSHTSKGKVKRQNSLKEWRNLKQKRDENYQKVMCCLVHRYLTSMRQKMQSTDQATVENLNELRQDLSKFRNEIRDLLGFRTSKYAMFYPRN
Protocol: Preparation and labelling of protein solution: TRPC6 protein dry powder (Alomone Labs, Israel) was prepared into a protein mother solution at a concentration of 10 μM using PBS-Buffer, and 35 μL of the protein stock solution was taken to the Buffer exchange A column, and centrifuged to obtain the Tris-removed protein. 34 μL Labelling Buffer was added to the Tris-removed protein according to the instructions of the Protein Fluorescent Labelling Kit (model L001). After mixing well, 3 μL of NT-647-NHS fluorescent dye was added and thus obtained mixture was incubated for 20 minutes. The protein-dye mixture was transferred to the purification B column, 300 μL of PBS-Buffer was added, and the target protein, i.e. fluorescent labelled protein TRPC6, was collected by centrifugation (with a final concentration of about 2 μM). 180 μL of target protein was mixed with 1620 μL of PBS-Buffer, and then 9 μl of Tween-20 were added thereto. Thus the resulting mixture was mixed and then centrifuged to obtain the target protein solution.
Preparation of compound solutions: the compounds were prepared separately with DMSO to storage solutions with a concentration of […]. 10 μL of each storage solution was placed in a […] EP tube, 90 μL of PBS was added thereto and the resulting mixture was thoroughly mixed to prepare 100 μL of working solution at a concentration of 1 μM for later use. Ligand gradient dilutions were made for a total of 16 concentrations, and 10 μL of 10% DMSO-Buffer was added to each of the 15 gradients except gradient 1, followed by the addition of 10 μL of ligand working solution to gradients 1 and 2, respectively. The liquid in tube 2 was mixed and then 10 μL therein was taken into tube 3, and dilution was carried out in this manner until tube 16. Tube 16 was mixed and 10 μL therein was taken and discarded, and the remainder was kept for later use.
Detection and analysis: 10 μL of protein solution was added to the 16 compound gradient dilutions respectively and mixed, and the resultant mixtures were transferred to capillary tubes sequentially to start detection on machine. After loading the data, the MST analysis model and Kd Model were selected to obtain the fitting curve and dissociation constant (Kd).
The binding ability of the compounds of the present invention (as exemplified by the compounds 1-1 and 2-1 obtained in Examples 1 and 3) for other TRPC proteins (e.g., TRPC1, TRPC3, TRPC4, TRPC5, and TRPC7) was determined using the microscale thermophoresis (MST) method. The method was as follows:
The affinity of the compounds of the present invention with TRPC1, TRPC3, TRPC4, TRPC5 and TRPC7 proteins, respectively, was determined by the same method as in Example 5.

| SMILES | average survival time ([1]; 25 mg/kg) [h] | Kd [2] [nM] | affinity strength to TRPC6 protein higher than to TRPC1 protein [2] [fold] | time after which the mice began to die ([1]; 25 mg/kg) [h] | time after which the mice began to die ([1]; 50 mg/kg) [h] | average survival time ([1]; 50 mg/kg) [h] |
| --- | --- | --- | --- | --- | --- | --- |
| Cn1c(C(=O)NCCC(=O)O)cc2ccccc21 [3-[(1-methyl-1H-indole-2-carbonyl)amino]propionic acid, reference compound] | 19.8 ± 3.1 | 1940 | 65 |  |  |  |
| CC(=O)OCCCNC(=O)c1c(C=O)c2ccccc2n1C [compound 1-1, propyl 3-[(3-formyl-1-methyl-1H-indole-2-carbonyl)amino]acetate] | 24.8 ± 3.9 | 2940 | 245 | 20 | 28 | 26.4 ± 4.3 |
| Cn1c(C(=O)NCCCOC(=O)c2ccccc2)c(C=O)c2ccccc21 [compound 2-1] |  | 2400 | 155 |  | 22 | 24.2 ± 4.9 |
